In patent US9687552B2, “Association of poly(N-acryloylglycinamide) with at least one active principle” (CENTRE NATIONAL DE LA RECHERCHE SCIENTIFIQUE, priority 2012, dated 2017):

How the values were obtained:
[1] = tested on: tissues and organs of the intraperitoneal cavity in mice; assay: delivery of methylene blue from PAG hydrogel to tissues and organs of the intraperitoneal cavity in mice; assay type: in vivo
Description: The delivery of the dye from the charged hydrogel to the tissues and organs of the intraperitoneal cavity in mice is observed.
To do this, an isotonic solution of PAG (molar mass equal to about 176 000 g/mol, 6% by weight of PAG) containing methylene blue (4 ml of solution (20 mg of dye) per 16 ml of gel) formed at 60° C. conditioned is introduced into heated syringes to be injected rapidly at 45° C. through a 23-gauge needle in order to fill the intraperitoneal cavity of the mice.
The mice treated according to the regulatory procedures were sacrificed after 2 hours, 8 hours, 24 hours, 30 hours and 52 hours (two animals per point).
After opening the abdomen, the distributions of the blue color in the gel, the tissues and the organs were assessed visually and compared at the same times with those observed for the control mice which received by similar injection an isotonic solution of the same concentration of methylene blue.

[2] = release of drug models from PAG hydrogel into physiological serum at 37° C. (UV spectrometry); assay type: physicochemical
Description: 60 mg of PAG polymer of molecular mass equal to 170 000 g/mol are placed in contact with 1 mil of physiological serum (6% by mass) in a small, hermetically scaled cylindrical flask and heated at 60° C. for a few minutes to obtain a clear, homogeneous solution, which is gelled by cooling.
The cycle is repeated twice to perfect the homogeneity of the gel.
10 mg of the compound chosen as drug model are added. The mixture is heated to have a homogeneous solution, which is left to cool to obtain the compound-gel system.
The flask is placed in a mobile incubator at 37° C. after having added on top of the gel formed 1 ml of physiological serum, into which the compound trapped in the hydrogel gradually diffuses. The receiving medium is then renewed at regular intervals and the compound that has diffused is evaluated quantitatively by UV spectrometry. The curve of gradual release is plotted as a percentage of the amount initially placed in the gel.

## CN(C)c1ccc2nc3ccc(=[N+](C)C)cc-3sc2c1 [methylene blue]
[1]; control mice: isotonic solution of the same concentration without PAG, intraperitoneal injection
  time after which the blue color totally disappeared: 24 h
[1]; in isotonic PAG solution (about 176 000 g/mol, 6% by weight), injected at 45° C. intraperitoneally, mice
  time the gel, tissues and organs, especially the liver, remained colored: at least 52 hours

## CC(=O)[O-].CC(=O)[O-].[Co+2] [cobalt acetate]
[2]; 10 mg in PAG 170 000 g/mol gel, 6% by mass in physiological serum, 37° C.
  extent of release from the gel: gradual release until depletion is complete
[2]; at 1 hour, 10 mg in PAG 170 000 g/mol gel, 6% by mass in physiological serum, 37° C.
  "burst" release as percentage of the amount initially placed in the gel: less than 15%
[2]; physiological serum, without gel
  dissolution in the same medium without gel: dissolves instantaneously in its entirety
